Tests used:
[1] = biological target: T1, SMARCA2 (Homo sapiens, UniProt P51531); assay: SMARCA2 Cellular Degradation Assay (Western blot analysis on Jess platform); assay type: cell-based; conditions: for DC50 / Dmax: cellular degradation; for Fold Selectivity SMARCA4/2: ratio DC50 SMARCA4 / DC50 SMARCA2
T1 construct: endogenous in cells
Outline: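 Tumor-derived cell pellets (5×10E5-1×10E6 live cells) lysed in RIPA + 0.2% SDS, phosphatase/protease inhibitors, benzonase; 5 μg protein/capillary on Jess; chemiluminescence/fluorescence immunoassay; SMARCA2/actin peak area, % of vehicle.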

[2] = biological target: T2, SMARCA4 (Homo sapiens, UniProt P51532); assay: Cellular degradation assay, SMARCA4 (Table 1); assay type: cell-based
T2 construct: endogenous in cells
T2 sequence (P51532 whole entry, species assumed): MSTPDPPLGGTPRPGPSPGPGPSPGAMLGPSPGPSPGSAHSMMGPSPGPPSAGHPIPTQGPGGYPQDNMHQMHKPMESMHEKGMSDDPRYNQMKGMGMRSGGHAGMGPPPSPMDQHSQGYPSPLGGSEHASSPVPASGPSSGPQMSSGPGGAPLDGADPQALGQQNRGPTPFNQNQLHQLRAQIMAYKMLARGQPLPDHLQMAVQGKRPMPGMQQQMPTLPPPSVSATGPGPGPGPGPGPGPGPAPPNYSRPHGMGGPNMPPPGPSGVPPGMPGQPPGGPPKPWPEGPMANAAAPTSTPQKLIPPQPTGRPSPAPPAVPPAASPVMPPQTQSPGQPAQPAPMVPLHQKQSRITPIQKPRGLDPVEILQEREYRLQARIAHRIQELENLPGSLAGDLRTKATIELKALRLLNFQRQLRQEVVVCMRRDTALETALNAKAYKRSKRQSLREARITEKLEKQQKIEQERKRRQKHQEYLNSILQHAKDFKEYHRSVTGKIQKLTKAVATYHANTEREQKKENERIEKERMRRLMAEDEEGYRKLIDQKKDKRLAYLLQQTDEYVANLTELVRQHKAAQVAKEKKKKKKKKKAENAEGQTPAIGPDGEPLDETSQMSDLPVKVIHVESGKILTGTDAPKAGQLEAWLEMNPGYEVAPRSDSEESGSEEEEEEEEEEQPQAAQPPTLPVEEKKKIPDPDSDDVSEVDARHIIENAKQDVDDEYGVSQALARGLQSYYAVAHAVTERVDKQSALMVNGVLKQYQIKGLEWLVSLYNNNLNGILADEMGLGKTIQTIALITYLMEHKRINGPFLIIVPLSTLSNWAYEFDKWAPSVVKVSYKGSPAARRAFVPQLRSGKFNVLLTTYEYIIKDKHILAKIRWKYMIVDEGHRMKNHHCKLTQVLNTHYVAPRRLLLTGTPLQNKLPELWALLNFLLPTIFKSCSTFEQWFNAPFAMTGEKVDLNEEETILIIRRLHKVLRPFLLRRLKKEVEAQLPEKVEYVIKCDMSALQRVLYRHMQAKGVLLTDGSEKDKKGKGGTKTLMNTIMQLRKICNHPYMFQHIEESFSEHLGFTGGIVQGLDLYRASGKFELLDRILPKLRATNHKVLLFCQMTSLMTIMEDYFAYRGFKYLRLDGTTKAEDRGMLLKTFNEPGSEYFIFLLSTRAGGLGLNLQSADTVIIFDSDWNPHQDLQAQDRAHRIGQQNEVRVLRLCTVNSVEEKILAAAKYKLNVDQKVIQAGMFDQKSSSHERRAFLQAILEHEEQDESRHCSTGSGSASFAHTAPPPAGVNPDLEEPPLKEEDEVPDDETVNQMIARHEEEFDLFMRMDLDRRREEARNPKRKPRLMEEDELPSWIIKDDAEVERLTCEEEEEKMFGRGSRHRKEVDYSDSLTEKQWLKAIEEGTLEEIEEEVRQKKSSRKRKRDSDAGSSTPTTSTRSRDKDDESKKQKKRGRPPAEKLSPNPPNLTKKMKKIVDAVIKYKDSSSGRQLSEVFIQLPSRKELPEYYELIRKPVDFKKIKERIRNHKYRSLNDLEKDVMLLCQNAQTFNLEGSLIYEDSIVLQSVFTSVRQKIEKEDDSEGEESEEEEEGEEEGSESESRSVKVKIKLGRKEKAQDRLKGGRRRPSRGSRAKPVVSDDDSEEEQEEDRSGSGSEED

T1 sequence (P51531 whole entry, species assumed): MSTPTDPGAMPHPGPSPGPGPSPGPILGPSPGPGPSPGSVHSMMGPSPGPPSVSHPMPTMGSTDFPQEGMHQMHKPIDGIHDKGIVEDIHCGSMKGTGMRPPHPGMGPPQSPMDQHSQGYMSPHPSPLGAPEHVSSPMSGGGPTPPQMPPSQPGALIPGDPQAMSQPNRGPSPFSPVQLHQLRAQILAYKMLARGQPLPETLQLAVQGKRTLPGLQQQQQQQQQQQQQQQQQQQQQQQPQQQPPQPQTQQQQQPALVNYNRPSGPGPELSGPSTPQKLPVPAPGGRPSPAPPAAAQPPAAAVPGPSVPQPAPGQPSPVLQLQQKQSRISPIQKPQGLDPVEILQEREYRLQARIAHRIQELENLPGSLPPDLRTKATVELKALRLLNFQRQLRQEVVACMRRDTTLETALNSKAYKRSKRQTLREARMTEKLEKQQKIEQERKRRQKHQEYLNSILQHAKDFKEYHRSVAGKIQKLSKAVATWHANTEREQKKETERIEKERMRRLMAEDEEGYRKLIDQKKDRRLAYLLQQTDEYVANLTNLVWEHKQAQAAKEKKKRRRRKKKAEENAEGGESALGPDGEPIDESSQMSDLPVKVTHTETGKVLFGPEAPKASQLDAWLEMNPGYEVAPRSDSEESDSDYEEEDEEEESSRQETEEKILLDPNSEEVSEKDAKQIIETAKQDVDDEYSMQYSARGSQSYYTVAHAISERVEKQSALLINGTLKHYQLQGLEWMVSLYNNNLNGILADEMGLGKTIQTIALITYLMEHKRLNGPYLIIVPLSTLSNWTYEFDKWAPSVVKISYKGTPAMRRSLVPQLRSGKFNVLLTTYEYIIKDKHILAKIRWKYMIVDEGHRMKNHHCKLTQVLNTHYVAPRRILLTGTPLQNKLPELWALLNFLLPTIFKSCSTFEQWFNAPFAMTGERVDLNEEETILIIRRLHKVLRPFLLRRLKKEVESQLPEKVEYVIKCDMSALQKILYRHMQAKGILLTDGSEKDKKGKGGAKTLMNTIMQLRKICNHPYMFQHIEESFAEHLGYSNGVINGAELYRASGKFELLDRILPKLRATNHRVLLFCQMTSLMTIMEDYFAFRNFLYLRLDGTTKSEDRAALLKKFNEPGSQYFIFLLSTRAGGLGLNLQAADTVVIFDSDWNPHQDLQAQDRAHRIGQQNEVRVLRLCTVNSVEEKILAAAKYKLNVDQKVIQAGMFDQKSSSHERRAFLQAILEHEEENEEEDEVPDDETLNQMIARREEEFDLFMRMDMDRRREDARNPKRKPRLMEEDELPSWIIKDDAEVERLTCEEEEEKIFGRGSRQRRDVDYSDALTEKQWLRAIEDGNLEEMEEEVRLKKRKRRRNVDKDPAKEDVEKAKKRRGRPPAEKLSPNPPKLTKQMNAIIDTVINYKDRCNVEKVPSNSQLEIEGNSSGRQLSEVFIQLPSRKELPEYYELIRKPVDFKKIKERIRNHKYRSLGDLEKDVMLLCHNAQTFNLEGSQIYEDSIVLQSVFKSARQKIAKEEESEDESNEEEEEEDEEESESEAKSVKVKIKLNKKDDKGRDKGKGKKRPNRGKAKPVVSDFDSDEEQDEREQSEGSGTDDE

DC50 [1] [nM] | Dmax [1] [%] | Fold Selectivity SMARCA4/2 [1] | DC50 [2] [nM] | Dmax [2] [%] | SMILES
3.24 | 88.1 | 10 | 31.3 | 70.3 | O=C1CC[C@H](c2ccc(N3CCC(CN4CCC5(CC4)CN(C(=O)C4(c6ccccc6)CCN(c6cnnc(-c7ccccc7O)c6)CC4)C5)CC3)cc2)C(=O)N1 [Example 194, (3R)-3-(4-{4-[(2-{1-[6-(2-hydroxyphenyl)pyridazin-4-yl]-4-phenylpiperidine-4-carbonyl}-2,7-diazaspiro[3.5]nonan-7-yl)methyl]piperidin-1-yl}phenyl)piperidine-2,6-dione]
14 | 74 | 714 | – | 28 | COC1(C(=O)N(C)C2CCN(CCC3CCN(c4ccc([C@H]5CCC(=O)NC5=O)cc4)CC3)CC2)CCN(c2cnnc(-c3ccccc3O)c2)CC1 [Example 196, (r)-n-(1-(2-(1-(4-(2,6-dioxopiperidin-3-yl)phenyl)piperidin-4-yl)ethyl)piperidin-4-yl)-1-(6-(2-hydroxyphenyl)pyridazin-4-yl)-4-methoxy-n-methylpiperidine-4-carboxamide]
